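Where inhibition never reached the appropriate level, the endpoint shown equals the highest concentration tested. Otherwise, values were interpolated linearly from a five-concentration, 48-hour dose response in 96-well plates. The concentration for full growth arrest is given as TGI.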
Assays:
Test in all cases: NCI-60 cell line screen, 48 h
[1] = system: A549 NSCLC
[2] = system: HOP-18 NSCLC
[3] = system: HT29 colon
[4] = system: A498 renal
[5] = system: SNB-78 CNS
[6] = system: LOX IMVI melanoma
[7] = system: SK-MEL-2 melanoma
[8] = system: SK-MEL-28 melanoma
[9] = system: SF-539 CNS
[10] = system: HCC-2998 colon
[11] = system: K-562 leukemia
[12] = system: HCT-116 colon
[13] = system: TK-10 renal
[14] = system: SK-OV-3 ovarian
[15] = system: SW-620 colon
[16] = system: SK-MEL-5 melanoma
[17] = system: HL-60(TB) leukemia
[18] = system: UO-31 renal
[19] = system: XF 498 CNS
[20] = system: NCI-H23 lung
[21] = system: NCI-H460 lung
[22] = system: DMS 114 small cell lung
[23] = system: COLO 205 colon
[24] = system: NCI-H522 lung
[25] = system: HOP-92 NSCLC
[26] = system: U251 CNS
[27] = system: 786-0 renal
[28] = system: SNB-75 CNS
[29] = system: RXF 393 renal
[30] = system: EKVX NSCLC
[31] = system: KM12 colon
[32] = system: SF-268 CNS
[33] = system: DMS 273 small cell lung
[34] = system: MALME-3M melanoma
[35] = system: SF-295 CNS
[36] = system: LXFL 529 NSCLC
[37] = system: HOP-62 NSCLC
[38] = system: OVCAR-8 ovarian
[39] = system: ACHN renal
[40] = system: IGROV1 ovarian
[41] = system: RPMI-8226 leukemia
[42] = system: KM20L2 colon
[43] = system: OVCAR-5 ovarian
[44] = system: MOLT-4 leukemia
[45] = system: CCRF-CEM leukemia
[46] = system: OVCAR-3 ovarian
[47] = system: M19-MEL melanoma
[48] = system: UACC-257 melanoma
[49] = system: M14 melanoma
[50] = system: HCT-15 colon
[51] = system: OVCAR-4 ovarian
[52] = system: SN12C renal
[53] = system: NCI-H226 lung
[54] = system: DLD-1 colon
[55] = system: SNB-19 CNS

Clc1ccc2c(c1)-c1c3c(nn1-c1ccccc1)-c1ccccc1SC3O2 (stereo not drawn)
TGI [1]: > 100 µM
TGI [2]: > 100 µM
TGI [3]: > 100 µM
TGI [4]: > 100 µM
TGI [5]: > 100 µM
TGI [6]: > 100 µM
TGI [7]: > 100 µM
TGI [8]: > 100 µM
TGI [9]: > 100 µM
TGI [10]: > 100 µM
TGI [11]: > 100 µM
TGI [12]: > 100 µM
TGI [13]: > 100 µM
TGI [14]: > 100 µM
TGI [15]: > 100 µM
TGI [16]: > 100 µM
TGI [17]: > 100 µM
TGI [18]: > 100 µM
TGI [19]: > 100 µM
TGI [20]: > 100 µM
TGI [21]: > 100 µM
TGI [22]: > 100 µM
TGI [23]: > 100 µM
TGI [24]: 87.5 µM
TGI [25]: > 100 µM
TGI [26]: > 100 µM
TGI [27]: > 100 µM
TGI [28]: > 100 µM
TGI [29]: > 100 µM
TGI [30]: > 100 µM
TGI [31]: > 100 µM
TGI [32]: > 100 µM
TGI [33]: > 100 µM
TGI [34]: > 100 µM
TGI [35]: > 100 µM
TGI [36]: > 100 µM
TGI [37]: > 100 µM
TGI [38]: > 100 µM
TGI [39]: > 100 µM
TGI [40]: > 100 µM
TGI [41]: > 100 µM
TGI [42]: > 100 µM
TGI [43]: > 100 µM
TGI [44]: > 100 µM
TGI [45]: > 100 µM
TGI [46]: > 100 µM
TGI [47]: > 100 µM
TGI [48]: > 100 µM

Cc1ccc(S(=O)(=O)C(C#N)c2nc3ccccc3nc2-n2ccnc2)cc1 (stereo not drawn)
TGI [1]: > 100 µM
TGI [2]: > 100 µM
TGI [3]: > 100 µM
TGI [5]: > 100 µM
TGI [7]: > 100 µM
TGI [8]: > 100 µM
TGI [9]: > 100 µM
TGI [49]: > 100 µM
TGI [10]: > 100 µM
TGI [50]: > 100 µM
TGI [11]: > 100 µM
TGI [12]: > 100 µM
TGI [51]: > 100 µM
TGI [13]: > 100 µM
TGI [14]: > 100 µM
TGI [52]: > 100 µM
TGI [16]: > 100 µM
TGI [17]: > 100 µM
TGI [18]: > 100 µM
TGI [19]: > 100 µM
TGI [20]: > 100 µM
TGI [21]: > 100 µM
TGI [22]: > 100 µM
TGI [23]: > 100 µM
TGI [24]: > 100 µM
TGI [53]: > 100 µM
TGI [25]: > 100 µM
TGI [54]: > 100 µM
TGI [26]: > 100 µM
TGI [27]: > 100 µM
TGI [28]: > 100 µM
TGI [30]: > 100 µM
TGI [31]: > 100 µM
TGI [32]: > 100 µM
TGI [33]: > 100 µM
TGI [34]: > 100 µM
TGI [35]: > 100 µM
TGI [36]: > 100 µM
TGI [37]: > 100 µM
TGI [38]: > 100 µM
TGI [39]: > 100 µM
TGI [40]: > 100 µM
TGI [41]: > 100 µM
TGI [43]: > 100 µM
TGI [44]: > 100 µM
TGI [45]: > 100 µM
TGI [46]: > 100 µM
TGI [55]: > 100 µM
TGI [47]: > 100 µM
TGI [48]: > 100 µM

Reference: PubChem BioAssay (NCI)
